In patent US7446092B2, “Glycogen synthase kinase-3 inhibitors” (Tel Aviv University Future Technology Development L.P., priority 2002, dated 2008):
Square brackets hold non-standard residues; d marks the D form. Ends that are not written are not given here. Peptide text beside a SMILES is read from it. * marks the point of attachment. pY = N[C@@H](Cc1ccc(OP(=O)(O)O)cc1)C(=O)O; Myristoyl = CCCCCCCCCCCCCC(=O)*; pS = N[C@@H](COP(=O)(O)O)C(=O)O

Key:
GSK-3β = GSK-3β (Oryctolagus cuniculus, UniProt A0A5F9DUX8); assay: In vitro GSK-3 inhibition assay (phosphorylation of PGS-1 peptide substrate); format: biochemical, rabbit; conditions: for Inhibitor functionality: GSK-3 inhibitor; for GSK-3 inhibition (in words): in vitro, cpL803-mts tested at 0-300 μM
Protocol: In vitro inhibition assays: Purified recombinant rabbit GSK-3β (Eldar-Finkelman et al., 1996) was incubated with peptide substrate PGS-1 ([…](p)EDEEE) (SEQ ID NO:15) and with a peptide inhibitor at indicated concentrations. The reaction mixture included Tris 50 mM (pH=7.3), 10 mM MgAc, ^32P[γ-ATP] (100 μM), 0.01% β-mercaptoethanol, and was incubated for 10 minutes at 30° C. Reactions were spotted on phosphocellulose paper (p81), washed with 100 mM phosphoric acid, and counted for radioactivity (as described in Eldar-Finkelman et al., 1996).

Cdc2 = target: T1, Cdc2 (Homo sapiens, UniProt P06493); assay: Effect of L803 on Cdc2 activity (histone H1 substrate); format: biochemical; conditions: L803 200 μM
T1 construct: purchased New England BioLabs (Beverly, Mass.)
Protocol: The effect of L803 (200 μM) on other protein kinases was tested by incubating Cdc2 (1 unit) with a reaction mixture similar to that described hereinabove and containing histone H1 substrate (5 μg). The reactions were boiled with SDS sample buffer, separated on gel electrophoresis and autoradiographed.

mouse adipocytes = assay: Glucose uptake in isolated adipocytes; format: cell-based
Protocol: Glucose uptake in isolated adipocytes: Mice adipocytes were isolated from epididymal fat pad by digestion with 0.8 mg/ml collagenase (Worthington Biochemical) as described previously (Lawrence et al., 1977). Digested fat pads were passed through nylon mesh and cells were washed 3 times with Krebs-bicarbonate buffer (pH=7.4) containing 1% bovine serum albumin (Fraction V, Boehringer Mannheim, Germany), 10 mM HEPES (pH=7.3), 5 mM glucose and 200 nM adenosine. Cells were incubated with L803-mts or LE803-mts at indicated concentrations for 1 hour, followed by addition of 2-deoxy [^3H] glucose (0.5 μci/vial) for 10 minutes. The assay was terminated by centrifugation of cells through dinonylphthalate (ICN, USA). ^3H was thereafter quantitated by liquid scintillation analyzer (Packard). Nonspecific uptake of 2-deoxy-[^3H] glucose was determined by the addition of cytochalasin B (50 μM) 30 minutes prior to the addition of radioactive material.
In another set of experiments, adipocytes were treated with various concentrations of L803-mts 1 hour before addition of sub-optimal concentration of insulin (5 nM). Glucose uptake was determined as described above.

glycogen synthase = assay: Glycogen synthase activity in HEK 293 cells; format: cell-based
From the text: Glycogen synthase activity in HEK 293 cells: To test the impact of the conjugates of the present invention in intact cells, the membrane preamble L803 inhibitor L803-mts (N-Myristol-GKEAPPAPPQS(p)P) (SEQ ID NO:16) and two similarly modified respective controls LE803-mts (N-Myristol-GKEAPPAPPQSEP) (SEQ ID NO:17) and LS803-mts (N-Myristol-GKEAPPAPPQSP) (SEQ ID NO:18), in which the phosphorylated serine was replaced with glutamic acid (that usually mimics a phosphorylated group) or a serine residue, respectively, were designed and synthesized.
HEK 293 cells were grown in 10 cm plates with Dulbecco's modified Eagle medium (DMEM) supplemented with 10% fetal calf serum (FCS). On the day of the experiment, cells were incubated with low glucose medium supplemented with 0.5% FCS for 1 hour, followed by the addition of the conjugate L803-mts or its respective controls LE803-mts and LS803-mts at various concentrations, for additional 2.5 hours. A vehicle control of DMSO (0.1% DMSO) was also tested. […] The reactions were then spotted on ET31 (Whatman) papers, washed with 66% ice-cold ethanol, and counted for radioactivity. Glycogen synthase assays were measured in the presence of 0.1 mM glucose-6-phosphate (G6P). […]

[1] = Forced swimming test (FST); format: in vivo, C57BL/6J mice; conditions: vs control-treated animals
Protocol: (§1) Forced Swimming Test (FST): C57BL/6J mice were housed in individual cages with free access to water in a temperature-controlled facility with a 12 hours light/dark cycle. Animals at age 14-16 weeks were used, and each experimental group consisted of randomly chosen 10-20 mice. At day one, mice were subjected to pre-FST (see below). At day two, mice were anesthetized with halothane (inhalation) and were unilaterally intracerebroventricularly injected (i.c.v., 1 μl of 25 mM stock solution) with L803-mts or a scrambled control peptide (cpL803-mts). Animals were subjected to FST once 1, 3, and 12 hours after reagents were administrated. The FST procedure used was similar to that initially described by Porsolt et al. (1977). Briefly, animals were placed at day one in a large cylinder (30 cm×45 cm) of 25° C. water for a 15-minutes period. At day two (24 hours later), treated mice were placed in the cylinder of water for a 6-minutes period. The duration of immobility was monitored during the last 4 minutes of the 6-minute test. Immobility period was defined as the time spent by the animal floating in the water without struggling and making only those movements necessary to keep its head above the water. All testing took place between 11:00 and 15:00. After completion the FST, mice were scarified, and hippocampuses were removed, frozen in liquid nitrogen, and stored at −80° C. Animal care followed the institutional animal care and used committee.

β-catenin = β-catenin levels in mouse hippocampus extracts (Western blot); format: in vivo
Protocol: as §1
Hippocampus extracts: Hippocampus tissue was homogenized with ice cold buffer H (50 mM β-glycerophosphate pH=7.3, 10% glycerol, 1 mM EGTA, 1 mM EDTA, 10 mM NaF, 5 mM NaPPi, 25 μg/ml leupeptin, 25 μg/ml aprotinin, 500 nM microcystine LR and 1% Triton X100). […] Equal amounts of proteins (30 μg) as determined by Bradford analysis (Bradford, […]) were boiled with Laemmli sample buffer and subjected to gel electrophoresis (10% polyacrylamide gel), transferred to nitrocellulose membranes, and immunoblotted with specific monoclonal antibodies for β-catenin (Transduction laboratories, USA).

[2] = Glucose tolerance test in fasted C57Bl/6J mice; format: in vivo; conditions: vs control peptide
Protocol: Glucose tolerance tests: Glucose tolerance tests were performed in overnight fasted C57Bl/6J mice (12 hours). L803-mts or LE803-mts were administrated intraperitoneally (i.p.) to mice (400 nmol peptide), glucose (1 gram/kg) was injected i.p. one hour thereafter and blood samples were collected from tail vein at various time points. Blood glucose levels were immediately measured by Sugar Accutrend Sensor,(Roche, Germany)).

GSK-3 = target: T2, GSK-3 (Oryctolagus cuniculus, UniProt G1T8E2); assay: In vitro test of peptides as GSK-3 substrates; format: biochemical, rabbit; conditions: S2(p) of p9CREB replaced
T2 construct: made in house
T2 sequence (G1T8E2 1-432): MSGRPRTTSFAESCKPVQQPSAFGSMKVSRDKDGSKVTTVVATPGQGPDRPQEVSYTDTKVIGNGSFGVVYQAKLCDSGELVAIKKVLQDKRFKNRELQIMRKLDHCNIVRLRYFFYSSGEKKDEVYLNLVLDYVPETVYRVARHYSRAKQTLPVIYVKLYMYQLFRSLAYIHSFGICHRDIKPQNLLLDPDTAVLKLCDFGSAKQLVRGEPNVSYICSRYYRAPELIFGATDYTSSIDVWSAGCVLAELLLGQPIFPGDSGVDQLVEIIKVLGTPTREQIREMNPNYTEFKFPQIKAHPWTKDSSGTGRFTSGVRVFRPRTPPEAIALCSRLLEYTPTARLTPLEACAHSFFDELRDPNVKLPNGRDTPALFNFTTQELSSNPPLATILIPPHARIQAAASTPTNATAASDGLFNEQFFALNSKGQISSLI

Sequence of GSK-3β (A0A5F9DUX8 1-420): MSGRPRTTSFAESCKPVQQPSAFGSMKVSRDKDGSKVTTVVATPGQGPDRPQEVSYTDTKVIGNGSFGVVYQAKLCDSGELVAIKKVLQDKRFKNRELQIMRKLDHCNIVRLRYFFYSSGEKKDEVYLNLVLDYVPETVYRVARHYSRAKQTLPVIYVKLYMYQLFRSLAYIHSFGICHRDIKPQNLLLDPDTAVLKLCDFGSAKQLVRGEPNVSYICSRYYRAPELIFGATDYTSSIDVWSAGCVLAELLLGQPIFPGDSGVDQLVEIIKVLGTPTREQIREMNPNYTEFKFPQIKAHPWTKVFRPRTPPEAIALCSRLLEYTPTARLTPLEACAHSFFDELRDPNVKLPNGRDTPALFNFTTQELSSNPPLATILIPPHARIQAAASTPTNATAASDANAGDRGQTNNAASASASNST
T1 sequence (P06493 whole entry): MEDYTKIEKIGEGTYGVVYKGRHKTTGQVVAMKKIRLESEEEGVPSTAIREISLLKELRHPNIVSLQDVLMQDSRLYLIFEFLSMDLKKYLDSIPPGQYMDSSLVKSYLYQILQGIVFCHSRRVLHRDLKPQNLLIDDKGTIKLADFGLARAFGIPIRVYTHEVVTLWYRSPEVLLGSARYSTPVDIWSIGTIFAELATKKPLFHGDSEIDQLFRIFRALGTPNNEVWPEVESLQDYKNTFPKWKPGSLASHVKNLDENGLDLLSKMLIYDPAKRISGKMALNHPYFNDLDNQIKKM
T1 sequence (P14635 whole entry partner): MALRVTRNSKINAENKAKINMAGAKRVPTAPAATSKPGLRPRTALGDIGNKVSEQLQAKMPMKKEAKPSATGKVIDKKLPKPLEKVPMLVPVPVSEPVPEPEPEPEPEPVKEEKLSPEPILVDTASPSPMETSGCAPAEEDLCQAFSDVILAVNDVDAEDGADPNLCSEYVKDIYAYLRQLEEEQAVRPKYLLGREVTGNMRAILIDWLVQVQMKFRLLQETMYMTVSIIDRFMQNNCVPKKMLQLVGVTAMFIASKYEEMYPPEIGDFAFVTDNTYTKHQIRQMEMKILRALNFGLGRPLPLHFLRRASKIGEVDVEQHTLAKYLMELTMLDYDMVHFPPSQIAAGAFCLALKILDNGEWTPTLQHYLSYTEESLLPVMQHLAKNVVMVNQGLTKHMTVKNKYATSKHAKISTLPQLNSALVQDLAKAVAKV

In the case of `CC[C@H](C)[C@H](N)C(=O)N[C@@H](CC(C)C)C(=O)N[C@@H](C)C(=O)N[C@@H](CCCNC(=N)N)C(=O)N[C@@H](CCCNC(=N)N)C(=O)N1CCC[C@H]1C(=O)N[C@@H](COP(=O)(O)O)C(=O)N[C@@H](Cc1ccc(O)cc1)C(=O)N[C@@H](CCCNC(=N)N)C(=O)O` [Peptide 6, ILARRPS(p)YR] (H-ILARRP[pS]YR-OH), the Inhibitor functionality (GSK-3β) is reported as “* (weak inhibition activity (IC50 > 800 μM))” and the “GSK-3 inhibition (in words)” value (GSK-3β) is reported as “eliminated the inhibitory capacity”.
For `C[C@H](NC(=O)[C@H](CCC(=O)O)NC(=O)[C@@H](N)CCCCN)C(=O)N1CCC[C@H]1C(=O)N1CCC[C@H]1C(=O)N[C@@H](C)C(=O)N1CCC[C@H]1C(=O)N1CCC[C@H]1C(=O)N[C@@H](CCC(N)=O)C(=O)N[C@@H](COP(=O)(O)O)C(=O)N1CCC[C@H]1C(=O)O` [Peptide 9, KEAPPAPPQS(p)P] (H-KEAPPAPPQ[pS]P-OH; N-terminus and C-terminus assumed), the “Inhibition of cdc2 (in words)” value (Cdc2) was “not inhibited”.
For `C[C@H](NC(=O)[C@@H]1CCCN1)C(=O)N1CCC[C@H]1C(=O)N1CCC[C@H]1C(=O)N[C@@H](CCC(N)=O)C(=O)N[C@@H](COP(=O)(O)O)C(=O)N1CCC[C@H]1C(=O)O` [Peptide 12, PAPPQS(p)P] (H-PAPPQ[pS]P-OH), the Inhibitor functionality (GSK-3β) was “* (weak inhibition activity (IC50 > 800 μM))”.
With `CCCCCCCCCCCCCC(=O)NCC(=O)N[C@@H](CCCCN)C(=O)N[C@@H](CCC(=O)O)C(=O)N[C@@H](C)C(=O)N1CCC[C@H]1C(=O)N1CCC[C@H]1C(=O)N[C@@H](C)C(=O)N1CCC[C@H]1C(=O)N1CCC[C@H]1C(=O)N[C@@H](CCC(N)=O)C(=O)N[C@@H](COP(=O)(O)O)C(=O)N1CCC[C@H]1C(=O)O` [Peptide L803-mts, N-Myristol-GKEAPPAPPQS(p)P] (Myristoyl-GKEAPPAPPQ[pS]P-OH; C-terminus assumed) the “Effect on insulin-induced glucose uptake (in words)” value (mouse adipocytes; L803-mts 1-10 μM followed by sub-optimal insulin (5 nM)) was “additive effect”, the “Increase of 2-deoxyglucose incorporation” value (mouse adipocytes; mouse adipocytes, no insulin, compared with cells treated with LE803-mts or LS803-mts) was “approximately 2.5 fold” and the “Concentrations inhibiting endogenous GSK-3” value (glycogen synthase) was 10 to 40 µM. For the same compound, the “Increase of glycogen synthase activity” value (glycogen synthase; 2.5 hours, compared with cells treated with LE803-mts or LS803-mts) was 2.5 fold, the “Shortening of immobility time” value ([1]; FST 1 hour after i.c.v. injection) was 37%±3.7% and the “Shortening of immobility time” value ([1]; FST 3 hours after i.c.v. injection) was 44%±5.7%. The “Shortening of immobility time” value ([1]; FST 12 hours after i.c.v. injection) was 16%±0.6%, the “Increase in β-catenin levels” value (β-catenin; 1 hour after i.c.v. L803-mts) was 20% and the “Increase in β-catenin levels” value (β-catenin; 3 hours after i.c.v. L803-mts) was 30%. For the same compound, the “Increase in β-catenin levels” value (β-catenin; 12 hours post administration) was 50%, the “Reduction in the blood glucose peak and in glucose levels 1 and 2 hours after glucose” value ([2]; 400 nmol i.p. one hour before glucose 1 gram/kg) was 20% and the “Glucose tolerance (in words)” value ([2]; 400 nmol i.p.) was “better glucose tolerance”.
In the case of ILSRPPEYR [Peptide 3], the “Phosphorylation by GSK-3 (in words)” value (GSK-3) is reported as “eliminated the capacity of GSK-3 to phosphorylate these peptides”.
With “ILSRPPY(p)YR (ILSRPP[pY]YR; also: phosphotyrosine, Y7 or Y8 (written PPY(p)YR)) [Peptide 4]” the “Phosphorylation by GSK-3 (in words)” value (GSK-3) was “eliminated the capacity of GSK-3 to phosphorylate these peptides”.
With KEEPPAPPQEP [Peptide 11] the “GSK-3 inhibition (in words)” value (GSK-3β) was “inactive inhibitors”.
In the case of KEEPPAPPQSP [Peptide 10], the “GSK-3 inhibition (in words)” value (GSK-3β) is reported as “inactive inhibitors”.
With “N-Myristol-GKEAPPAPPQSEP (Myristoyl-GKEAPPAPPQSEP) [LE803-mts, control conjugate, phosphorylated serine replaced with glutamic acid, reference compound]” the “GSK-3 inhibition (in words)” value (GSK-3β) was “do not inhibit”.
For “N-Myristol-GKEAPPAPPQSP (Myristoyl-GKEAPPAPPQSP) [LS803-mts, control conjugate, phosphorylated serine replaced with serine, reference compound]”, the “GSK-3 inhibition (in words)” value (GSK-3β) was “do not inhibit”.
For insulin [reference compound], the “Maximum stimulation of glucose uptake by insulin” value (mouse adipocytes; mouse adipocytes, insulin 10 nM, data not shown) was 3 fold.
